Test results as given in patent US9701670B2, “Pyrazolyl-ureas as kinase inhibitors” (RESPIVERT LIMITED, priority 2013, dated 2017).
pIC50: −log10 of the molar value.

What was measured:
[1] = tested on: Differentiated U937 cells; assay: (l) Cell viability: MTT assay; type: cell-based, human; details: 1 μg/mL
Description: Differentiated U937 cells are pre-incubated with each test compound (final concentration 1 μg/mL or 10 μg/mL in 200 μL media indicated below) under two protocols: the first for 4 hr in 5% FCS RPMI1640 media and the second in 10% FCS RPMI1640 media for 24 h. The supernatant is replaced with new media (200 μL) and MTT stock solution (10 μL, 5 mg/mL) is added to each well. After incubation for 1 hr the media are removed, DMSO (200 μL) is added to each well and the plates are shaken lightly for 1 hr prior to reading the absorbance at 550 nm. The percentage loss of cell viability is calculated for each well relative to vehicle (0.5% DMSO) treatment. Consequently an apparent increase in cell viability for drug treatment relative to vehicle is tabulated as a negative percentage.

[2] = target: p38 MAPKα isoform (MAPK14) (Homo sapiens (Human), UniProt Q16539); assay: p38 MAPKα enzyme inhibition (FRET, Z-LYTE), Method 1; type: biochemical; details: Method 1 (Table 4a1)
Description: The enzyme inhibitory activities of compounds disclosed herein are determined by FRET using synthetic peptides labelled with both donor and acceptor fluorophores (Z-LYTE, Invitrogen Ltd., Paisley, UK).
The inhibitory activities of test compounds against the p38 MAPKα isoform (MAPK14: Invitrogen), are evaluated indirectly by determining the level of activation/phosphorylation of the down-stream molecule, MAPKAP-K2. The p38 MAPKα protein (80 ng/mL, 2.5 μL) is mixed with the test compound (2.5 μL of either 4 μg/mL, 0.4 μg/mL, 0.04 μg/mL or 0.004 μg/mL) for 2 hr at RT. […] The mixture is incubated for 1 hr at RT. Development reagent (protease, 5 μL) is added for 1 hr prior to detection in a fluorescence microplate reader (Varioskan® Flash, ThermoFisher Scientific).
In all cases, the site-specific protease cleaves non-phosphorylated peptide only and eliminates the FRET signal. Phosphorylation levels of each reaction are calculated using the ratio of coumarin emission (donor) over fluorescein emission (acceptor), for which high ratios indicate high phosphorylation and low ratios indicate low phosphorylation levels.

Chain of p38 MAPKα isoform (MAPK14) (Q16539 whole entry, canonical isoform): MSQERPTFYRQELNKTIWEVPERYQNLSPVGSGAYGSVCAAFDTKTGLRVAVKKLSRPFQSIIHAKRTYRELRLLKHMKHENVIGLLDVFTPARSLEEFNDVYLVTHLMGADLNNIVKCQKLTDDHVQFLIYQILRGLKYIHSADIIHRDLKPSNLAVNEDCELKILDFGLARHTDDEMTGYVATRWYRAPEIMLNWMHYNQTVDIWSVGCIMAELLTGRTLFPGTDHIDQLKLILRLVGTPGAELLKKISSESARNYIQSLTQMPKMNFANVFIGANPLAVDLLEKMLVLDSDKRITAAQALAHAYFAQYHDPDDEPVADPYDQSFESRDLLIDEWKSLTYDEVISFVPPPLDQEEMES

pIC50 [2] | SMILES | Cell viability at time point in d-U937 cells 4 h [1] | Cell viability at time point in d-U937 cells 24 h [1]
9.00 | COc1cc(Nc2nccc(Oc3ccc(NC(=O)Nc4cc(C(C)C)nn4-c4ccc(C)cc4)c4ccccc34)n2)cc(C(=O)NCCN(C)C)c1 [Example 5, N-(2-(Dimethylamino)ethyl)-3-((4-((4-(3-(3-isopropyl-1-(p-tolyl)-1H-pyrazol-5-yl)ureido)naphthalen-1-yl)oxy)pyrimidin-2-yl)amino)-5-methoxybenzamide] | −ve (−ve and +ve indicate that the value is below and above respectively, the no significant effect threshold, defined as 30% inhibition at 1 μg/mL at the time point indicated.) | −ve (−ve and +ve indicate that the value is below and above respectively, the no significant effect threshold, defined as 30% inhibition at 1 μg/mL at the time point indicated.)
> 9.00 | COc1ccc(C(=O)NCCN(C)C)cc1Nc1nccc(Oc2ccc(NC(=O)Nc3cc(C(C)C)nn3-c3ccc(C)cc3)c3ccccc23)n1 [Example 28, N-(2-(dimethylamino)ethyl)-3-((4-((4-(3-(3-isopropyl-1-(p-tolyl)-1H-pyrazol-5-yl)ureido)naphthalen-1-yl)oxy)pyrimidin-2-yl)amino)-4-methoxybenzamide] | −ve (−ve and +ve indicate that the value is below and above respectively, the no significant effect threshold, defined as 30% inhibition at 1 μg/mL at the time point indicated.) | −ve (−ve and +ve indicate that the value is below and above respectively, the no significant effect threshold, defined as 30% inhibition at 1 μg/mL at the time point indicated.)
7.70 | COc1ccc(-n2nc(C(C)C)cc2NC(=O)Nc2ccc(Oc3ccnc(Nc4cc(Cl)cc(C(=O)NCCN5CCOCC5)c4)n3)c3ccccc23)cc1 [Example 61, 3-chloro-5-((4-((4-(3-(3-isopropyl-1-(4-methoxyphenyl)-1H-pyrazol-5-yl)ureido)naphthalen-1-yl)oxy)pyrimidin-2-yl)amino)-N-(2-morpholinoethyl)benzamide] | −ve (−ve and +ve indicate that the value is below and above respectively, the no significant effect threshold, defined as 30% inhibition at 1 μg/mL at the time point indicated.) | −ve (−ve and +ve indicate that the value is below and above respectively, the no significant effect threshold, defined as 30% inhibition at 1 μg/mL at the time point indicated.)
7.89 | COc1cc(Nc2nccc(Oc3ccc(NC(=O)Nc4cc(C(C)(C)C)nn4-c4ccc(C)cc4)c4ccccc34)n2)cc(C(=O)NCCN2CCOCC2)c1 [Example 52, 3-((4-((4-(3-(3-(tert-butyl)-1-(p-tolyl)-1H-pyrazol-5-yl)ureido)naphthalen-1-yl)oxy)pyrimidin-2-yl)amino)-5-methoxy-N-(2-morpholinoethyl)benzamide] | −ve (−ve and +ve indicate that the value is below and above respectively, the no significant effect threshold, defined as 30% inhibition at 1 μg/mL at the time point indicated.) | −ve (−ve and +ve indicate that the value is below and above respectively, the no significant effect threshold, defined as 30% inhibition at 1 μg/mL at the time point indicated.)
8.30 | COc1ccc(Nc2nccc(Oc3ccc(NC(=O)Nc4cc(C(C)C)nn4-c4ccc(C)cc4)c4ccccc34)n2)cc1C(=O)NCCN1CCOCC1 [Example 70, 5-((4-((4-(3-(3-isopropyl-1-(p-tolyl)-1H-pyrazol-5-yl)ureido)naphthalen-1-yl)oxy)pyrimidin-2-yl)amino)-2-methoxy-N-(2-morpholinoethyl)benzamide] | −ve (−ve and +ve indicate that the value is below and above respectively, the no significant effect threshold, defined as 30% inhibition at 1 μg/mL at the time point indicated.) | −ve (−ve and +ve indicate that the value is below and above respectively, the no significant effect threshold, defined as 30% inhibition at 1 μg/mL at the time point indicated.)
> 9.00 | Cc1ccc(-n2nc(C(C)C)cc2NC(=O)Nc2ccc(Oc3ccnc(Nc4cc(C)cc(C(=O)NCCN5CCOCC5)c4)n3)c3ccccc23)cc1 [Example 44, 3-((4-((4-(3-(3-isopropyl-1-(p-tolyl)-1H-pyrazol-5-yl)ureido)naphthalen-1-yl)oxy)pyrimidin-2-yl)amino)-5-methyl-N-(2-morpholinoethyl)benzamide] | −ve (−ve and +ve indicate that the value is below and above respectively, the no significant effect threshold, defined as 30% inhibition at 1 μg/mL at the time point indicated.) | −ve (−ve and +ve indicate that the value is below and above respectively, the no significant effect threshold, defined as 30% inhibition at 1 μg/mL at the time point indicated.)
> 9.00 | COc1ccc(-n2nc(C(C)C)cc2NC(=O)Nc2ccc(Oc3ccnc(Nc4cc(C(=O)NCCO)ccc4OC)n3)c3ccccc23)cc1 [Example 34, N-(2-hydroxyethyl)-3-((4-((4-(3-(3-isopropyl-1-(4-methoxyphenyl)-1H-pyrazol-5-yl)ureido)naphthalen-1-yl)oxy)pyrimidin-2-yl)amino)-4-methoxybenzamide] | +ve (−ve and +ve indicate that the value is below and above respectively, the no significant effect threshold, defined as 30% inhibition at 1 μg/mL at the time point indicated.) | −ve (−ve and +ve indicate that the value is below and above respectively, the no significant effect threshold, defined as 30% inhibition at 1 μg/mL at the time point indicated.)
> 9.00 | COc1ccc(-n2nc(C3CCCO3)cc2NC(=O)Nc2ccc(Oc3ccnc(Nc4cc(OC)cc(C(=O)NCCN5CCOCC5)c4)n3)c3ccccc23)cc1 (stereo not drawn) [Example 58, 3-methoxy-5-((4-((4-(3-(1-(4-methoxyphenyl)-3-(tetrahydrofuran-2-yl)-1H-pyrazol-5-yl)ureido)naphthalen-1-yl)oxy)pyrimidin-2-yl)amino)-N-(2-morpholinoethyl)benzamide] | −ve (−ve and +ve indicate that the value is below and above respectively, the no significant effect threshold, defined as 30% inhibition at 1 μg/mL at the time point indicated.) | −ve (−ve and +ve indicate that the value is below and above respectively, the no significant effect threshold, defined as 30% inhibition at 1 μg/mL at the time point indicated.)
8.22 | COc1cc(Nc2nccc(Oc3ccc(NC(=O)Nc4cc(C(C)C)nn4-c4ccc(OC)nc4)c4ccccc34)n2)cc(C(=O)NCCN2CCOCC2)c1 [Example 10, 3-((4-((4-(3-(3-Isopropyl-1-(6-methoxypyridin-3-yl)-1H-pyrazol-5-yl)ureido)naphthalen-1-yl)oxy)pyrimidin-2-yl)amino)-5-methoxy-N-(2-morpholinoethyl)benzamide] | −ve (−ve and +ve indicate that the value is below and above respectively, the no significant effect threshold, defined as 30% inhibition at 1 μg/mL at the time point indicated.) | −ve (−ve and +ve indicate that the value is below and above respectively, the no significant effect threshold, defined as 30% inhibition at 1 μg/mL at the time point indicated.)
8.15 | COc1ccc(-n2nc(C(C)C)cc2NC(=O)Nc2ccc(Oc3ccnc(Nc4cc(OC)cc(C(=O)NCCN5CCOCC5)c4)c3)c3ccccc23)cc1 [Example 15, 3-((4-((4-(3-(3-isopropyl-1-(4-methoxyphenyl)-1H-pyrazol-5-yl)ureido)naphthalen-1-yl)oxy)pyridin-2-yl)amino)-5-methoxy-N-(2-morpholinoethyl)benzamide] | −ve (−ve and +ve indicate that the value is below and above respectively, the no significant effect threshold, defined as 30% inhibition at 1 μg/mL at the time point indicated.) | −ve (−ve and +ve indicate that the value is below and above respectively, the no significant effect threshold, defined as 30% inhibition at 1 μg/mL at the time point indicated.)
7.47 | CNC(=O)c1cccc(Nc2nccc(Oc3ccc(NC(=O)Nc4cc(C(C)(C)C)nn4-c4ccc(C)cc4)c4ccccc34)n2)c1 [Example 16, 3-((4-((4-(3-(3-(tert-butyl)-1-(p-tolyl)-1H-pyrazol-5-yl)ureido)naphthalen-1-yl)oxy)pyrimidin-2-yl)amino)-N-methylbenzamide] | −ve (−ve and +ve indicate that the value is below and above respectively, the no significant effect threshold, defined as 30% inhibition at 1 μg/mL at the time point indicated.) | −ve (−ve and +ve indicate that the value is below and above respectively, the no significant effect threshold, defined as 30% inhibition at 1 μg/mL at the time point indicated.)
